Read-outs that look alike come from different tables or passages of the source.
Test system: T1, OsD-LDH-FL
T1 construct: full-length 561 residues including mitochondrial targeting peptide, N-terminal GST tag kept (pGEX-6P-1), 87 kDa fusion, expressed in E. coli BL21 (DE3)
Assay: spectrophotometric cytochrome c reduction at […] nm, Hanes-Woolf
Format: biochemical, Oryza sativa subsp. indica
Details: 200 μM cytochrome c as electron acceptor, pH 8.35, 30°C, 50 mM potassium phosphate

Structure (SMILES) | Km (read-out: D-LACTATE / KM) [µM] | Km (read-out: D-2-HB / KM) [µM]
C[C@@H](O)C(=O)O [D-lactate] | 41.4 ± 2.93 | –
CC[C@@H](O)C(=O)O [D-2-hydroxybutyrate] | – | 11 ± 0.34
